Laboratory results from US20120003183A1, “ADDITION SALTS OF TROMETHAMINE WITH AZABIPHENYLAMINOBENZOIC ACID DERIVATIVES AS DHODH INHIBITORS” (priority 2009, published 2012).
Structures can show the parent of a compound that is named as a salt.

Assays:
Type in all cases: physicochemical
[1] = Dynamic Vapour Sorption (DVS) moisture sorption/desorption; details: for Mass increase at 80% relative humidity (DVS): 80% RH; for Mass increase at 90% relative humidity (DVS): 90% RH; for Hygroscopicity / Hysteresis in DVS sorption/desorption: result in words
Description: Dynamic Vapour Sorption (DVS) profiles were obtained using an Igasorp Hiden Isochema instrument (serial number IGA-SA-066). After an initial stabilization period, at least two isotherms (at 25° C.) were obtained for each sample: a moisture sorption from 0 to 95% relative humidity and moisture desorption from 95% relative humidity to dryness. Both isotherms were performed in 10% humidity steps, with a minimum time of 10 minutes and a maximum time of 30 minutes for each step.

[2] = Water-solubility test; details: for Water Solubility @ 25° C. (mg/mL as acid): 25° C. (room temperature)
Description: The solubility of the of Examples 1-3 in water at room temperature was determined together with the solubility of the corresponding free acids.

[3] = Differential scanning calorimetry (DSC) thermogram, stability; details: heated 30 to 350° C. at 10° C./min; result in words
Description: The differential scanning calorimetry (DSC) thermograms analyses were obtained using a DSC-821 Mettler-Toledo instrument, serial number 5117423874. Samples were weighed into an aluminium pan, an aluminium lid placed on top of the sample and compressed with a brass rod. Samples were equilibrated at 30° C. and heated at 10° C./min to 350° C. The instrument was calibrated using indium and zinc standards.

Row | Mass increase at 80% relative humidity (DVS) ([1]; 25° C.) | Mass increase at 90% relative humidity (DVS) ([1]; 25° C.) | Hygroscopicity [1] | Hysteresis in DVS sorption/desorption [1] | Water Solubility @ 25° C. (mg/mL as acid) [2] | Stability (polymorph conversion / decomposition) from DSC thermogram [3] | Mass increase at 95% relative humidity (DVS) ([1]; 95% RH, 25° C.) | Solubility in water compared with the corresponding free acids ([2]; result in words) | Structure (SMILES)
1 | 1.8% | 5.1% | not hygroscopic | no hysteresis | 0.540 mg/mL as acid | high stability | – | – | Cc1ccc(Nc2ccc(-c3cccc(F)c3F)nc2)c(C(=O)O)c1 [Example 3, 5-methyl-2-{[6-(2,3-difluorophenyl)pyridin-3-yl]amino}benzoic acid, tromethamine salt]
2 | – | – | – | – | 0.030 mg/mL as acid | – | – | – | O=C(O)c1cc(C2CC2)ccc1Nc1cnc(-c2c(F)cccc2F)nc1 [Example C1, 5-cyclopropyl-2-{[2-(2,6-difluorophenyl)pyrimidin-5-yl]amino}benzoic acid, reference compound]
3 | – | – | – | – | 0.007 mg/mL as acid | – | – | – | Cc1ccc(Nc2ccc(-c3cccc(F)c3F)nc2)c(C(=O)O)c1 [Example C3, 5-methyl-2-{[6-(2,3-difluorophenyl)pyridin-3-yl]amino}benzoic acid, reference compound]
4 | 3.4% | – | slightly hygroscopic | no hysteresis | 0.139 mg/mL as acid | high stability | 7.0% | – | O=C(O)c1cc(C2CC2)ccc1Nc1cnc(-c2ccccc2C(F)(F)F)nc1 [Example 2, 5-cyclopropyl-2-{[2-(2-(trifluoromethyl)phenyl)pyrimidin-5-yl]amino}benzoic acid, tromethamine salt]
5 | – | – | – | – | 0.003 mg/mL as acid | – | – | – | O=C(O)c1cc(C2CC2)ccc1Nc1cnc(-c2ccccc2C(F)(F)F)nc1 [Example C2, 5-cyclopropyl-2-{[2-(2-(trifluoromethyl)phenyl)pyrimidin-5-yl]amino}benzoic acid, reference compound]
6 | 1.2% | 6.1% | not hygroscopic | no hysteresis | 1.780 mg/mL as acid | high stability | – | Particularly good results | O=C(O)c1cc(C2CC2)ccc1Nc1cnc(-c2c(F)cccc2F)nc1 [Example 1, 5-cyclopropyl-2-{[2-(2,6-difluorophenyl)pyrimidin-5-yl]amino}benzoic acid, tromethamine salt]
